Entries after “also recorded” stand apart in the source; their conditions may differ. Where two headings read alike, the source gives them in different places.
Legend:
[1] = system: store-operated calcium entry in RBL-2H3 cells; assay: Fluorescence (FLUO-4/FLIPR384) store-operated calcium entry screening assay; assay type: cell-based, rat; settings: for IC50: Up slope parameter, RBL-2H3 cells; for inhibition at 10 µM: RBL-2H3; for inhibition at 10 µM / % Inhibition at 10 μM: cell line not stated
Protocol: Fluorescence-based assays were used for screening the compounds described herein, such as compounds of Formula (I) and Formula (II), which modulate intracellular calcium.
RBL-2H3 cells plated in 384-well plates were loaded for 45 min with FLUO-4-AM (2 μM final concentration) in HBSS. Cells were washed and placed in a nominally Ca^2+- and Mg^2+-free Hanks solution. One minute later, a test agent or vehicle was added. After a 15 minute incubation period, 1 μM thapsigargin (Tg) was added to inhibit the ER Ca^2+ pump and discharge intracellular Ca^2+ stores. Fifteen minutes after addition of Tg, store-operated calcium entry was initiated by adding external Ca^2+ to a final concentration of 1.8 mM and the cells monitored for a further 10-15 minutes. Calcium levels were monitored throughout the assay using a FLIPR^384 (Molecular Devices fluorimetric imaging plate reader for high throughput screening).
A similar screening assay procedure was used with HEK293 and RBL-2H3 cells.
The kinetic data from the FLIPR^384 were analyzed and then stored in a relational database (ActivityBase; IDBS). Ten quantitative parameters were calculated that define various aspects of the store-operated calcium entry response. These parameters are as follows:
Up slope: linear regression of the increase in RFU from 2 to 30 sec after addition of Ca^2+.
Combinations of these parameters were used to characterize the compounds of Formula (I). Compounds were retested under identical conditions to confirm their activity. Compounds with confirmed activity were then analyzed for concentration-dependent effects, and subsequently, those compounds displaying concentration-dependent effects were categorized as compounds that modulate intracellular calcium.

hOrail/hSTIM1 [2] = target: T1, hOrail/hSTIM1 (Homo sapiens, UniProt Q96D31); assay: Recombinant hOrail/hSTIM1-dependent Ca2+ entry in stable cells; assay type: cell-based; settings: FIG. 14
T1 construct: expressed in transfected cells

hOrail/hSTIM1 [3] = target: T1, hOrail/hSTIM1; assay: Monster ICRAC in cells stably overexpressing hOrail/hSTIM1; assay type: cell-based; settings: FIG. 15
HEK-Zeo control cells = settings: read-out: IC50 for inhibition of calcium entry, HEK-Zeo control cells; thapsigargin-mediated store depletion, readdition of external calcium
Protocol: (§1) To test whether the Ca^2+ entry pathway activated by STIM1 overexpression is pharmacologically similar to endogenous SOCE, HEK[STIM1] cells were pre-incubated with increasing doses of 2-APB and STIM1-dependent Ca^2+ entry was measured.

HEK[STIM1] cells = assay: STIM1-dependent Ca2+ entry in STIM1-overexpressing cells; assay type: cell-based, human
Protocol: as §1

T1 sequence (Q96D31 whole entry): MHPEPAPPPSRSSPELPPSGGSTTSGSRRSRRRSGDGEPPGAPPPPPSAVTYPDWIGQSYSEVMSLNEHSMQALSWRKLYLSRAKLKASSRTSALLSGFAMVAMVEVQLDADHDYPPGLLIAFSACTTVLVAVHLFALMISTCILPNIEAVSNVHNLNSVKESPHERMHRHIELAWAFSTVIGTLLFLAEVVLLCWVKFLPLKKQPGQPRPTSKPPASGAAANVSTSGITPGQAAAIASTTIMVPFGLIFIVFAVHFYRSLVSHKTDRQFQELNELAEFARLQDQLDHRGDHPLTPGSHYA
T1 sequence (Q13586 23-685 partner): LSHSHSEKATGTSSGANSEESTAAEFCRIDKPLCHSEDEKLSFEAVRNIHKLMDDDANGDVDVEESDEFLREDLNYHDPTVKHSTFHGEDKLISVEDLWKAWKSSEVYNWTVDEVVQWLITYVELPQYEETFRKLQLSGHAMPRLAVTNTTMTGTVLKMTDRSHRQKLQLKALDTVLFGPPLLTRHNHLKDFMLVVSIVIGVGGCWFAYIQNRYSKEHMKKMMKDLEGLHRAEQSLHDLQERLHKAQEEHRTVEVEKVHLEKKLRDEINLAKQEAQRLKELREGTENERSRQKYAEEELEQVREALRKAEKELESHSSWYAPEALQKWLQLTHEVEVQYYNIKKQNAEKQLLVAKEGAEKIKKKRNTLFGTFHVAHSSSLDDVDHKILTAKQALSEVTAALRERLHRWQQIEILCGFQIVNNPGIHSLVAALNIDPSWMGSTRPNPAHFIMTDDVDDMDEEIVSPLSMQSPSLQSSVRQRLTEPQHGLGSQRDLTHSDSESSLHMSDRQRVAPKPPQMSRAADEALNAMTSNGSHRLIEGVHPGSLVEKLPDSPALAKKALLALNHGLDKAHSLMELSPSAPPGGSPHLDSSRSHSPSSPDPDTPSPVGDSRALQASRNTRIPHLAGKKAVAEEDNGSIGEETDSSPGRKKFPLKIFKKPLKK

SMILES	IC50 ([1]; Rattus norvegicus) [µM]	inhibition at 10 µM ([1]; Rattus norvegicus) [%]	other results
O=C(Nc1scc(-c2ccc(Cl)cc2)c1C(=O)O)c1ccc(F)cc1 [Compound 2, 2-(4-fluorobenzamido)-4-(4-chlorophenyl)thiophene-3-carboxylic acid]	2.3		effect on recombinant hOrail/hSTIM1-dependent Ca2+ entry (hOrail/hSTIM1 [2]): inhibition; effect on Monster ICRAC (hOrail/hSTIM1 [3]): inhibit
NCCOB(c1ccccc1)c1ccccc1 [Compound 2-APB, 2-aminoethoxydiphenyl borate]			IC50 (HEK-Zeo control cells): 11800 nM; effect on STIM1-dependent Ca2+ entry (HEK[STIM1] cells; HEK293 overexpressing STIM1, no Tg store depletion, FIG. 13): biphasic effect; also recorded: both enhances (at low concentrations) and inhibits (at high concentrations); IC50 (HEK[STIM1] cells; HEK[STIM1] cells, entry induced by pretreatment in Ca2+-free buffer, read-out: IC50 for inhibition of Ca2+ entry in the absence of Tg-dependent store depletion): 10800 nM; IC50 (HEK[STIM1] cells; thapsigargin-mediated store depletion, readdition of external calcium, read-out: IC50 for inhibition of calcium entry, HEK[STIM1] cells): 10500 nM
O=C(Nc1scc(-c2ccc(Cl)c(Cl)c2)c1C(=O)O)c1ccc(F)cc1 [Compound 3, 2-(4-fluorobenzamido)-4-(3,4-dichlorophenyl)thiophene-3-carboxylic acid]	3.3	> 70	
O=C(Nc1scc(-c2ccc(C(F)(F)F)cc2)c1C(=O)O)c1ccc(F)cc1 [Compound 4, 2-(4-fluorobenzamido)-4-(4-trifluoromethylphenyl)thiophene-3-carboxylic acid]		> 70	
O=C(Nc1scc(-c2ccc(Br)cc2)c1C(=O)O)c1cccc(F)c1 [Compound 11, 2-(3-fluorobenzamido)-4-(4-bromophenyl)thiophene-3-carboxylic acid]	0.8		
O=C(Nc1scc(-c2ccc(Br)cc2)c1C(=O)O)c1ccc(Cl)cc1 [Compound 12, 2-(4-chlorobenzamido)-4-(4-bromophenyl)thiophene-3-carboxylic acid]	1.2		
O=C(Nc1scc(-c2ccc(Br)cc2)c1C(=O)O)c1cc2ccccc2s1 [Compound 14, 2-(benzothien-2-ylamido)-4-(4-bromophenyl)thiophene-3-carboxylic acid]			% Inhibition at 10 μM [1]: >70%; IC50 [1]: 2.4 µM
Cc1cccc(C(=O)Nc2scc(-c3ccc(Br)cc3)c2C(=O)O)c1 [Compound 15, 2-(3-methylbenzamido)-4-(4-bromophenyl)thiophene-3-carboxylic acid]	2.6		
Cc1ccc(-c2csc(NC(=O)c3ccc(Br)cc3)c2C(=O)O)cc1 [Compound 16, 2-(4-bromobenzamido)-4-(4-methylphenyl)thiophene-3-carboxylic acid]	0.6		
O=C(Nc1scc(-c2ccc(Cl)cc2)c1C(=O)O)c1ccc(Br)cc1 [Compound 17, 2-(4-bromobenzamido)-4-(4-chlorophenyl)thiophene-3-carboxylic acid]	1	> 70	
O=C(Nc1scc(-c2ccc(Br)cc2)c1C(=O)O)c1ccc(Br)cc1 [Compound 18, 2-(4-bromobenzamido)-4-(4-bromophenyl)thiophene-3-carboxylic acid]	1.3	> 70	
O=C(Nc1scc(-c2cc(Cl)cc(Cl)c2)c1C(=O)O)c1ccc(Br)cc1 [Compound 19, 2-(4-bromobenzamido)-4-(3,5-dichlorophenyl)thiophene-3-carboxylic acid]	1.6	> 70	
O=C(Nc1scc(-c2cccc(Cl)c2)c1C(=O)O)c1ccc(Br)cc1 [Compound 20, 2-(4-bromobenzamido)-4-(3-chlorophenyl)thiophene-3-carboxylic acid]	4	< 70	
Cc1ccc(-c2csc(NC(=O)c3ccc(Br)cc3)c2C(=O)O)cc1C [Compound 21, 2-(4-bromobenzamido)-4-(3,4-dimethylphenyl)thiophene-3-carboxylic acid]	4.6	> 70	
O=C(Nc1scc(-c2ccc(Cl)cc2)c1C(=O)O)c1cccc(F)c1 [Compound 25, 2-(3-fluorobenzamido)-4-(4-chlorophenyl)thiophene-3-carboxylic acid]	1.3		
O=C(Nc1scc(-c2ccc(Cl)cc2Cl)c1C(=O)O)c1cccc(F)c1 [Compound 26, 2-(3-fluorobenzamido)-4-(2,4-dichlorophenyl)thiophene-3-carboxylic acid]	2.1	> 70	
O=C(Nc1scc(-c2ccc(Cl)cc2)c1C(=O)O)c1cc2ccccc2s1 [Compound 43, 2-(benzothien-2-ylamido)-4-(4-chlorophenyl)thiophene-3-carboxylic acid]			% Inhibition at 10 μM [1]: >70%; IC50 [1]: 1 µM
Cc1ccc(-c2csc(NC(=O)c3cc4ccccc4s3)c2C(=O)O)cc1 [Compound 44, 2-(benzothien-2-ylamido)-4-(4-methylphenyl)thiophene-3-carboxylic acid]			% Inhibition at 10 μM [1]: <70%; IC50 [1]: 1.3 µM
O=C(Nc1scc(-c2ccc(Cl)cc2Cl)c1C(=O)O)c1cc2ccccc2s1 [Compound 45, 2-(benzothien-2-ylamido)-4-(2,4-dichlorophenyl)thiophene-3-carboxylic acid]			% Inhibition at 10 μM [1]: >70%; IC50 [1]: 2.4 µM
O=C(Nc1scc(-c2cccc(Cl)c2)c1C(=O)O)c1cc2ccccc2s1 [Compound 46, 2-(benzothien-2-ylamido)-4-(3-chlorophenyl)thiophene-3-carboxylic acid]			% Inhibition at 10 μM [1]: >70%; IC50 [1]: 10.7 µM

Continued, in another order:

IC50 ([1]; Rattus norvegicus) [µM]	SMILES	inhibition at 10 µM ([1]; Rattus norvegicus) [%]	other results
1	O=C(Nc1scc(-c2ccc(Cl)cc2)c1C(=O)O)c1ccc(Cl)cc1 [Compound 33, 2-(4-chlorobenzamido)-4-(4-chlorophenyl)thiophene-3-carboxylic acid]		
1	Cc1ccc(-c2csc(NC(=O)c3ccc(Cl)cc3)c2C(=O)O)cc1 [Compound 34, 2-(4-chlorobenzamido)-4-(4-methylphenyl)thiophene-3-carboxylic acid]		
1.6	O=C(Nc1scc(-c2ccc(Cl)cc2Cl)c1C(=O)O)c1ccc(Cl)cc1 [Compound 35, 2-(4-chlorobenzamido)-4-(2,4-dichlorophenyl)thiophene-3-carboxylic acid]	> 70	
2.4	O=C(Nc1scc(-c2ccc(F)cc2)c1C(=O)O)c1ccc(Cl)cc1 [Compound 36, 2-(4-chlorobenzamido)-4-(4-fluorophenyl)thiophene-3-carboxylic acid]		
3	O=C(Nc1scc(-c2ccc(Cl)c(Cl)c2)c1C(=O)O)c1ccc(Cl)cc1 [Compound 37, 2-(4-chlorobenzamido)-4-(3,4-dichlorophenyl)thiophene-3-carboxylic acid]	< 70	
3.8	Cc1ccc(-c2csc(NC(=O)c3ccc(Cl)cc3)c2C(=O)O)cc1C [Compound 38, 2-(4-chlorobenzamido)-4-(3,4-dimethylphenyl)thiophene-3-carboxylic acid]	< 70	
1.2	Cc1cccc(C(=O)Nc2scc(-c3ccc(Cl)cc3)c2C(=O)O)c1 [Compound 50, 2-(3-methylbenzamido)-4-(4-chlorophenyl)thiophene-3-carboxylic acid]		
3	Cc1ccc(-c2csc(NC(=O)c3cccc(C)c3)c2C(=O)O)cc1 [Compound 51, 2-(3-methylbenzamido)-4-(4-methylphenyl)thiophene-3-carboxylic acid]		

Reference: patent US8524765B2, “Compounds that modulate intracellular calcium” (Calcimedica, Inc., priority 2007, dated 2013)
